Experimental data: ChEMBL document CHEMBL5465560, “Selectivity Literature for EUbOPEN Chemogenomic Library” (2024)
pIC50: −log10 of the molar value.

Columns and labels:
[1] = target: Serine/threonine-protein kinase 38-like (Homo sapiens) (UniProt Q9Y2H1); assay: Selectivity interaction (KinomeScan (DiscoverX)) EUB0000229b STK38L; conditions: at 10 µM
[2] = target: Leukocyte tyrosine kinase receptor (Homo sapiens, UniProt P29376); assay: Selectivity interaction (KinomeScan (DiscoverX)) EUB0000666a LTK; conditions: at 10 µM
[3] = target: T1, Rhodopsin kinase GRK7 (Homo sapiens) (UniProt Q8WTQ7); assay: Selectivity interaction (KinomeScan (DiscoverX)) EUB0000666a GRK7; conditions: at 10 µM
T1 sequence (whole entry): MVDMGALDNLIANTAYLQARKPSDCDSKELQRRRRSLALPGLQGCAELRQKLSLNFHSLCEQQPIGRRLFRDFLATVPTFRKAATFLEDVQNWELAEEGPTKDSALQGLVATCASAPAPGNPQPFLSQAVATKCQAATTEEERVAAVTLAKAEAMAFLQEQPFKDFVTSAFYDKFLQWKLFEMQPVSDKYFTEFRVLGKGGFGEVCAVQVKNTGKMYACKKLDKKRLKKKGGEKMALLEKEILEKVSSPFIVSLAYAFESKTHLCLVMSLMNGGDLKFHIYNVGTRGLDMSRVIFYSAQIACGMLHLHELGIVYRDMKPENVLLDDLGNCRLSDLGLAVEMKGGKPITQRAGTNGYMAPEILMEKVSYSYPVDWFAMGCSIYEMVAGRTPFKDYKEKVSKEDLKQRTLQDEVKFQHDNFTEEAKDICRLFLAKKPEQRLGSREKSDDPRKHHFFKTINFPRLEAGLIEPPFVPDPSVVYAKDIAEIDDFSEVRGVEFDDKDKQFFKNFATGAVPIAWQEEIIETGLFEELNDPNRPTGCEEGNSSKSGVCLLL

[4] = target: 5-hydroxytryptamine receptor 3A (Homo sapiens, UniProt P46098); assay: Selectivity interaction (Serotonin 5HT3 receptor assay, human recombinant ) EUB0000877a HTR3A
[5] = target: Serine/threonine-protein kinase Nek6 (Homo sapiens) (UniProt Q9HC98); assay: Selectivity interaction (Kinase panel (Invitrogen)) EUB0000639a NEK6; conditions: at 200 nM
[6] = target: Vasopressin V1a receptor (Homo sapiens) (UniProt P37288); assay: Selectivity interaction (Panel of non-epigenetic targets (kinases, GPCRs, ion channels, and transporters, Eurofins) ) EUB0000271b AVPR1A; conditions: at 1 µM
[7] = target: T2, Serine/threonine-protein kinase LATS1 (Homo sapiens) (UniProt O95835); assay: Selectivity interaction (Ambit KINOMEscan and KiNATiv profiling in Jurkat cells) EUB0000090b LATS1; type: cell-based; conditions: at 1 µM
T2 sequence (whole entry): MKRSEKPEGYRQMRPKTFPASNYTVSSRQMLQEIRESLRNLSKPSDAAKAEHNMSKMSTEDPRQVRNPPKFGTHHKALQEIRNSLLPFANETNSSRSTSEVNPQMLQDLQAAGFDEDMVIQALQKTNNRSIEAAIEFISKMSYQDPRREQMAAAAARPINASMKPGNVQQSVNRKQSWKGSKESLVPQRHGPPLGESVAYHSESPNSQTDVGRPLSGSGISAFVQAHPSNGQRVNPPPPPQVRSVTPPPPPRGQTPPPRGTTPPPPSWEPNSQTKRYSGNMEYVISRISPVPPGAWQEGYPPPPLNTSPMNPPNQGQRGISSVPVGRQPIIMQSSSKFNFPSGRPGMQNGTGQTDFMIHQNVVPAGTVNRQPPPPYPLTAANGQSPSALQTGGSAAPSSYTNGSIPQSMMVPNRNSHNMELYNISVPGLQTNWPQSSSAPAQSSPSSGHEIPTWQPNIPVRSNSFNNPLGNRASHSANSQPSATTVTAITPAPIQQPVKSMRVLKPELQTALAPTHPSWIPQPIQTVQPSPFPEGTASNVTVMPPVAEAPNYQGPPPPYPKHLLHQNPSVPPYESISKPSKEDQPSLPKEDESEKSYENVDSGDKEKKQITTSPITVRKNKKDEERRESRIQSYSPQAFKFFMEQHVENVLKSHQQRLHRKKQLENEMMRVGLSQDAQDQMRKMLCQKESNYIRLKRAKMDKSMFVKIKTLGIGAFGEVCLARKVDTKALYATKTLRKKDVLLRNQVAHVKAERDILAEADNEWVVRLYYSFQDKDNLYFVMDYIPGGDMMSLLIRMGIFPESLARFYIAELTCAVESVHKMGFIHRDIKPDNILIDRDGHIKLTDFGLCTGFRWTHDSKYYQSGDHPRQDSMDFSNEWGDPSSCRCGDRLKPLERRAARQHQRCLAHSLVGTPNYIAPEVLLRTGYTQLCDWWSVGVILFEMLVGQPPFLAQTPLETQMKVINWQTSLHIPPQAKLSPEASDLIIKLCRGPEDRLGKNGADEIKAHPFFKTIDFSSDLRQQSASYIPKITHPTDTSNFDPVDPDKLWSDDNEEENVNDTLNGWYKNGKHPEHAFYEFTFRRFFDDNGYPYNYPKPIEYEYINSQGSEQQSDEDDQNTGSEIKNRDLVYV

[8] = target: RAC-gamma serine/threonine-protein kinase (Homo sapiens, UniProt Q9Y243); assay: Selectivity interaction (Kinase screening (Nanosyn)) EUB0000604a AKT3
[9] = target: T3, Cyclin-dependent kinase 11A (Homo sapiens) (UniProt Q9UQ88); assay: Selectivity interaction (ActivX KiNativ screen (ex vivo kinase selectivity in human PBMCs)) EUB0001619a CDK11A; type: cell-based; conditions: PBMC, at 1 µM
T3 sequence (whole entry): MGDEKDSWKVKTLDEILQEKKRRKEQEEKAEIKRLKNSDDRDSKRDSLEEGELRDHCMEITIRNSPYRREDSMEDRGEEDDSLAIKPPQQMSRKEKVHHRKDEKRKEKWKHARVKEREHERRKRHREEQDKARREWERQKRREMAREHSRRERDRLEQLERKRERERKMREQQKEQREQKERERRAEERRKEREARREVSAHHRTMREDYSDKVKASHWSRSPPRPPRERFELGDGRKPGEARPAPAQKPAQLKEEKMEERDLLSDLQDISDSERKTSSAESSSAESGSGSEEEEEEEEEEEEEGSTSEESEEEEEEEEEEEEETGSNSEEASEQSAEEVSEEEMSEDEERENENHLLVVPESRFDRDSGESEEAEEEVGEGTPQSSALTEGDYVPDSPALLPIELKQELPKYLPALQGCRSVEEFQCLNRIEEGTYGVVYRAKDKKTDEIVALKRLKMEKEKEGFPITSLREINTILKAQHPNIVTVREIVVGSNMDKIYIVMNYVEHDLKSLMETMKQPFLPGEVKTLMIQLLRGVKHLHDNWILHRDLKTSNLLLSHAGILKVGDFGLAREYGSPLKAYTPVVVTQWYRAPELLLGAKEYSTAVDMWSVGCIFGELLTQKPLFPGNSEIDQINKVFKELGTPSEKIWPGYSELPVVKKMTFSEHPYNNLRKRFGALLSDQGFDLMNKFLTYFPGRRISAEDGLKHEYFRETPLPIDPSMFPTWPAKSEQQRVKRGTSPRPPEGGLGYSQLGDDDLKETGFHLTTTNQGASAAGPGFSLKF

Sequence of Serine/threonine-protein kinase Nek6 (Homo sapiens) (Q9HC98 whole entry): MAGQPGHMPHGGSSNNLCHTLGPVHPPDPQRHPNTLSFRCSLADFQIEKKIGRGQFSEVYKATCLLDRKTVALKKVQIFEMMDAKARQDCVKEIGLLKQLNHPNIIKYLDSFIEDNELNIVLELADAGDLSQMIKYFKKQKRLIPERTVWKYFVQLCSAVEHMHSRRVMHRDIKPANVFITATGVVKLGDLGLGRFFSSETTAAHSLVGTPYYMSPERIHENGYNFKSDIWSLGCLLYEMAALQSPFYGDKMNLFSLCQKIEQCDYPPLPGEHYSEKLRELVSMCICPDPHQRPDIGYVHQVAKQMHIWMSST
Sequence of Vasopressin V1a receptor (Homo sapiens) (P37288 whole entry, looked up): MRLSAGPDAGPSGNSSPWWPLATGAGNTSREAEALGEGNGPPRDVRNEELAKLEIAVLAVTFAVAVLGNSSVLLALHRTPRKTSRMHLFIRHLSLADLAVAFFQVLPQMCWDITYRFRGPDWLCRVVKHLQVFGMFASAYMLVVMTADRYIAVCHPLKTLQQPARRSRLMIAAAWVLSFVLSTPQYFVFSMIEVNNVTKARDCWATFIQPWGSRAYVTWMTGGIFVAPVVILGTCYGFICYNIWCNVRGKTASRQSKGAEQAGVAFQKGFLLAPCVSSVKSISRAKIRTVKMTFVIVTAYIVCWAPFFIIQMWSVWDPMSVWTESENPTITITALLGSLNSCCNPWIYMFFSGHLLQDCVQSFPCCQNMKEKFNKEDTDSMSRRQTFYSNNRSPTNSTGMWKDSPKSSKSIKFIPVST
Sequence of Serine/threonine-protein kinase 38-like (Homo sapiens) (Q9Y2H1 2-464 limits assumed): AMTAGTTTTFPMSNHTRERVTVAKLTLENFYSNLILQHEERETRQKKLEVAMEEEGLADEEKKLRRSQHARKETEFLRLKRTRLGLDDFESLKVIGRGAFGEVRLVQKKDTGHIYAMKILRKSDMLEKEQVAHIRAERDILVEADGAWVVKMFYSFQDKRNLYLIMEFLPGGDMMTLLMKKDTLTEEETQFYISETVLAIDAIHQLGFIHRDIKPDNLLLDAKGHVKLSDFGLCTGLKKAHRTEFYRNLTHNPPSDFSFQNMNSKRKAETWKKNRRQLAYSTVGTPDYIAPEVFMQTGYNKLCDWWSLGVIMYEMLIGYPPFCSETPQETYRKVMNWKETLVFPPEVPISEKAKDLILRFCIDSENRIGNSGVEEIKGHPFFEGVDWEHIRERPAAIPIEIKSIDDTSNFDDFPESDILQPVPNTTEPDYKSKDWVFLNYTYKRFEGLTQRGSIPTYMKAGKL
Sequence of 5-hydroxytryptamine receptor 3A (P46098 whole entry): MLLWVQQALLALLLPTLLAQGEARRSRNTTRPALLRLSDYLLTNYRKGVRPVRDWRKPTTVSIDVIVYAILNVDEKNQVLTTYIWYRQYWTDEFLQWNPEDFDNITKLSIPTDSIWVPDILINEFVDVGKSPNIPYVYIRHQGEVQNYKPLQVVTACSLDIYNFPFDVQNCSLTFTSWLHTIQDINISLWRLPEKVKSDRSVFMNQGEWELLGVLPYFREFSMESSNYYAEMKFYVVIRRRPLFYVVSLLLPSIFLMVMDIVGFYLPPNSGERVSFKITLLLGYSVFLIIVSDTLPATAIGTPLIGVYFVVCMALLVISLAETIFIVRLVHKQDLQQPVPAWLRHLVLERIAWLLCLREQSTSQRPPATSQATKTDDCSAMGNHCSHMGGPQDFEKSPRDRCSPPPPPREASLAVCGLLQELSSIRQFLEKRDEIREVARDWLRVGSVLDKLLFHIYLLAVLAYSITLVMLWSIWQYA
Sequence of RAC-gamma serine/threonine-protein kinase (Q9Y243 whole entry): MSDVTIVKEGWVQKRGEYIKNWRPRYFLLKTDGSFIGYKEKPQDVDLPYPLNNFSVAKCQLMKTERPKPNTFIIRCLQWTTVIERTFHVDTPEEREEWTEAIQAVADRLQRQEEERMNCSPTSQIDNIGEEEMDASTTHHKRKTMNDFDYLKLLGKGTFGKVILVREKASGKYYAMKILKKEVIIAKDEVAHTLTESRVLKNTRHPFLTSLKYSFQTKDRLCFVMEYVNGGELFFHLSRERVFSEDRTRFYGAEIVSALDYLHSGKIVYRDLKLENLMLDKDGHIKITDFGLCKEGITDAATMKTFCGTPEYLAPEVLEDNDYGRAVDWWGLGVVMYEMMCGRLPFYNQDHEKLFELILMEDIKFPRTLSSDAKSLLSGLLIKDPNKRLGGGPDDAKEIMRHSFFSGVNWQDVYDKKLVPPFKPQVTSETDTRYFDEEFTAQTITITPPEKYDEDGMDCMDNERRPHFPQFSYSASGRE
Sequence of Leukocyte tyrosine kinase receptor (P29376 whole entry): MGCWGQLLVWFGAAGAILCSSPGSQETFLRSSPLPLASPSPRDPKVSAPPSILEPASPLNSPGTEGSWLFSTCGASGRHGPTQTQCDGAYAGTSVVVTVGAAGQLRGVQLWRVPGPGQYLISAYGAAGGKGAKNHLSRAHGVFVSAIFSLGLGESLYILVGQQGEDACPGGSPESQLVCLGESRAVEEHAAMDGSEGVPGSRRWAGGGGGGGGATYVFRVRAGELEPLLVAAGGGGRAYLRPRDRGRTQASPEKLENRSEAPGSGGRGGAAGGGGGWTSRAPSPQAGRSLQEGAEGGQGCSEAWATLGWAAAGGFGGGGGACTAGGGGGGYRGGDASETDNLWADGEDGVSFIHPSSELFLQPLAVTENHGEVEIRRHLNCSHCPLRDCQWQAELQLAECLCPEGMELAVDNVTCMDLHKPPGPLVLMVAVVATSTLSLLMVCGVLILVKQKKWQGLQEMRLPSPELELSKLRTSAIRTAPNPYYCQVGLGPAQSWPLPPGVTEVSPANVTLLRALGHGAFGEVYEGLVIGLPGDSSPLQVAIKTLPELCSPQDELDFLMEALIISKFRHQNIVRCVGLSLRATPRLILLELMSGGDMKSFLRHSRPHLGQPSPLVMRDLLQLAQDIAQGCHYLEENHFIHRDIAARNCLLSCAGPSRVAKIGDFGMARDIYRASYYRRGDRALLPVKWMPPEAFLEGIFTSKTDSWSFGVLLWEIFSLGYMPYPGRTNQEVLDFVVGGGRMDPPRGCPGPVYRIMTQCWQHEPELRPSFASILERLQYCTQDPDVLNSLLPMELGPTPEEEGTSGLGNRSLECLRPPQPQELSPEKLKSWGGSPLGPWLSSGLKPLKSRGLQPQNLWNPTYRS

COc1cc(N(C)c2ccnc3ccc(C(F)(F)F)cc23)cc(OC)c1OC was tested. Which % binding [1] did it give?
Its % binding is 87%.

Which % of control [2] does the source give for O=C(NOC[C@H](O)CO)c1ccc(F)c(F)c1Nc1ccc(I)cc1F here?
Its % of control is 100%.

And the % of control [3]?
Its % of control is 100%.

With CCC(=O)N1CC[C@H](Nc2ncnc3c2CN(c2cnc(OC)c(C(F)(F)F)c2)CC3)C1 [LENIOLISIB] as the compound, how does the pIC50 [4] read?
The pIC50 was under 4.52.

Which % of inhibition [5] does the source give for CC[C@@H]1[C@H](F)C(=O)N[C@@H]1COc1nccc2cc(C(N)=O)c(OC)cc12 [ZIMLOVISERTIB] here?
Its % of inhibition is 6.81%.

For Cc1cc(C)cc([C@@H]2c3cc(C)ccc3NC(=O)CN2C(=O)c2ccc(Br)s2)c1, which % of inhibition [6] is on record?
Its % of inhibition is -5%.

How did the % of control [7] turn out when CN(C)C/C=C/C(=O)Nc1ccc(C(=O)N2CCCC(Nc3ncc(Cl)c(-c4c[nH]c5ccccc45)n3)C2)cc1 (centres undefined) was run?
The % of control was 84%.

How did the % of inhibition [8] turn out when Cc1cnc(Nc2ccc(F)cc2Cl)nc1-c1c[nH]c(C(=O)N[C@H](CO)c2cccc(Cl)c2)c1 was run?
Its % of inhibition is 0%.

How did the % of inhibition [9] turn out when N#Cc1cccc(-c2c[nH]c3ncnc(N4CCOCC4)c23)c1 was run?
The % of inhibition was 36%.
